The subject of data set [1] is LIF-overexpressing MCF-7 (MCF-7 LIF) human breast cancer cells. As to the kind of experiment: LIF specificity assay, cytotoxicity. The class given is cell-based. To be noted: for Fold Change: cytotoxicity MCF-7 vs. MCF-7 LIF (specificity towards LIF).
For another data set, the system named is T47D cells. As to the kind of experiment: Soft agar colony formation assay. The class given is cell-based, human. The settings on record: 100 nM concentration. As for the experimental part: Colonies of cancer cells formed in soft agar in the presence and absence of the testing compounds is a standard assay to interpret in-vitro tumorigenic potential in the basal layer. Agar was prepared by mixing 1% DNA grade agar melted and cooled to 40° C. with an equal volume of (2×) Dulbecco's Modified Eagle's Medium (DMEM) to obtain 0.5% agar that was dispersed in a 6-well plate and allowed to solidify. A total of 0.6% agar was prepared in RPMI medium and mixed together with T47D cells (0.5×10^6 cells/mL) and immediately plated on the basal layer in the presence or absence of testing compounds. The cultures were incubated at 37° C. in a CO2 incubator for 2 weeks, and colonies were stained with 0.005% crystal violet and observed under a light microscope.

Data set [2] has as its system Patient derived tumor (melanoma). Kind of data set: Immunohistochemistry analysis of treated patient derived tumor. The class given is cell-based, human. To be noted: 10 nM and 1 uM for 5 days. As for the experimental part: Patient derived tumor (melanoma) was treated with the compounds at 10 nM and 1 uM for 5 days in RPMI medium and harvested on day 6 using established protocol and immunohistochemistry was performed for different antibodies including p53, LIF, MDM2, pSTAT3, Ki67.

Data set [3] concerns human umbilical vein endothelial cells (HUVEC). As to the kind of experiment: Matrigel in vitro HUVECs tube formation assay (angiogenesis). The class given is cell-based. To be noted: 1 μM concentration, all measured time points. As for the experimental part:
Matrigel in vitro HUVECs tube formation assay: The tube formation assay was performed using 12-well plate coated with 100 μL Matrigel basement membrane matrix (BD Bioscience) per well and polymerized at 37° C. for 30 min. Human umbilical vascular endothelial cells (HUVECs) suspended in M199 medium containing 2% FBS were plated on the Matrigel at a density of 2×10^5 cells/well. […] After 8 h, the Matrigel-induced morphological changes were photographed and the extent of capillary tube formation was evaluated by measuring the total tube length per field.

The subject of data set [4] is human endometrial stromal cells (HESC). Kind of data set: Decidualization assay, phalloidin staining of actin cytoskeleton. The class given is cell-based. As to the method: Decidualization studies: The above compounds were investigated originally for the treatment of endometriosis. The compounds were tested in a decidualization assay using human endometrial stromal fibroblast (HESC) cells. In preparation for the possibility of embryonic attachment, the stromal cells in the endometrium undergo extensive waves of proliferation, remodeling, and terminal differentiation that transforms the endometrium into an endocrine gland, called decidua. This transformation is called decidualization and it is under the control by ovarian hormones.
The level of apoptosis increases from the proliferative phase through menstrual cycle and peaks at menses. […] However if the cells are subjected to conditions that induce decidualization, stromal cells will begin to differentiate instead of undergoing apoptosis.
Rationale of this assay is described above in mechanism of action studies section. Briefly, human stromal endometrial cells were plated in the presence and absence of progesterone and allow undergoing decidualization. The cells treated with test compounds of different concentrations and stained for actin cytocketal morphology using phalloidin staining and monitored under fluorescent microscope.

For a further data set, the system named is MCF-7 cells. Kind of data set: P53 / MDM2 levels in MCF-7 cells. The class given is cell-based, human.
The subject of data set [5] is various cancer cells lines. Kind of data set: Cytotoxicity assays in various cancer cell lines. The class given is cell-based.
The next data set relates to A549 (Lung cancer). Kind of data set: Short term (72 h) cytotoxicity assay. The class given is cell-based. The settings on record: Homo sapiens, A549, 72 h.
The next data set has as its system U87-MU (Glioma cells). Kind of data set: Short term (72 h) cytotoxicity assay. The class given is cell-based. The settings on record: Glioma cell.
Data set [6] relates to unmodified MCF-7 human breast cancer cells. Kind of data set: LIF specificity assay, cytotoxicity. The class given is cell-based. To be noted: MCF7.
In another data set the test system is U251 (Glioma). Kind of data set: Short term (72 h) cytotoxicity assay. To be noted: Homo sapiens, U-251; U251, 72 h. The class given is cell-based.
The test system of data set [7] is FC 1295 and imPSCc-2 organoids. As to the kind of experiment: Pancreatic cancer / stellate cell line derived organoid system. The class given is cell-based, Murine. The settings on record: as compared to control. As to the method:
Most solid tumors have extensive stroma that not only facilitates the tumor progression but also impedes the delivery of the chemotherapeutic agents. Due to lack of any in-vitro system, presently it is difficult to evaluate any stroma-targeted therapies. Therefore, we developed an organoid system using labeled pancreatic cancer and stellate cell lines. Murine (FC 1295 and […]-2) cell lines cultured in different combinations were grown as an organoid system using matrigel. The organoids, starting day four were treated with either gemcitabine or EC359, a novel mifepristone derived steroidal cytotoxic agent that targets tumor stroma, or both in combination. qRT-PCR analysis of activated stroma signature genes was performed on the mRNA isolated from different treatment groups. H&E, immunohistochemistry, and western blot analysis were performed to further validate our findings. […] Our novel cell line derived organoid model can be utilized for fast, and inexpensive evaluation of stroma-targeted therapies.

Broadly, the melting point is the temperature, or range, at which the solid turns liquid. `C#CC(F)(F)[C@]1(O)CCC2C3CCC4=CC(=O)CCC4=C3C(c3ccc(C(C)(C)C)cc3)C[C@@]21C` (stereo partly drawn) [EC357, 17α-(1,1-difluoro-2-propyn-1-yl)-17β-hydroxy-11β-[4-p-(t-butyl)phenyl]estra-4,9-dien-3-one] had a melting point of 127 to 129 °C.

For `C#CC(F)(F)[C@]1(O)CCC2C3CCC4=CC(=O)CCC4=C3C(c3ccc(S(=O)(=O)C4CC4)cc3)C[C@@]21C` (stereo partly drawn) [EC361, 17α-(1,1-difluoro-2-propyn-1-yl)-17β-hydroxy-11β-[4-p-(cyclopropylsulfonyl)phenyl]estra-4,9-dien-3-one], the “Fold Change” value in [1] is 20.

Turning to `C#CC(F)(F)[C@]1(O)CCC2C3CCC4=CC(=O)CCC4=C3C(c3ccc(C(C)=O)cc3)C[C@@]21C` (stereo partly drawn) [EC332, 17α-(1,1-difluoro-2-propyn-1-yl)-17β-hydroxy-11β-[4-p-(acetyl)phenyl]estra-4,9-dien-3-one], the colonies formed entry in the data set with T47D cells is on record as “complete inhibition or no colonies were formed”. The “apoptosis, p53, MDM2, LIF mediated STAT3 phosphorylation (immunohistochemistry)” value in data set [2] was “induce apoptosis and restore p53 by inhibiting MDM2 and LIF mediated STAT3 phosphorylation”. The tube formation entry in data set [3] is “complete abrogation of tube formation”. The “actin cytoskeletal disruption (phalloidin staining)” value in data set [4] is “cytoskeletal disruption”. The “P53 levels / MDM2” value in the data set on MCF-7 cells was “restore P53 levels by inhibiting MDM2”. The “cytotoxicity (IC50's) in cytotoxicity assays” value in data set [5] was “low nanomolar”.

Take `C#CC(F)(F)[C@]1(O)CCC2C3CCC4=CC(=O)CCC4=C3C(c3ccc(CCCCCCC)cc3)C[C@@]21C` (stereo partly drawn) [EC362, 17α-(1,1-difluoro-2-propyn-1-yl)-17β-hydroxy-11β-[4-p-(n-heptyl)phenyl]estra-4,9-dien-3-one]: in data set [1], the “Fold Change” value turned out to be 2.

As for `C#CC(F)(F)[C@]1(O)CCC2C3CCC4=CC(=O)CCC4=C3C(c3ccc(C4CCCCC4)cc3)C[C@@]21C` (stereo partly drawn) [EC360, 17α-(1,1-difluoro-2-propyn-1-yl)-17β-hydroxy-11β-[4-p-(cyclohexyl)phenyl]estra-4,9-dien-3-one], in [1], the “Fold Change” value was 2.

In the case of `C#CC(F)(F)[C@]1(O)CCC2C3CCC4=CC(=O)CCC4=C3C(c3ccc(C(=C)C)cc3)C[C@@]21C` (stereo partly drawn) [EC358, 17α-(1,1-difluoro-2-propyn-1-yl)-17β-hydroxy-11β-[4-p-(1-methylethenyl)phenyl]estra-4,9-dien-3-one], the “Fold Change” value in [1] is on record as 2.

One may read the IC50 as the point on the concentration scale where inhibition reaches its midpoint. For `C#CC(F)(F)[C@]1(O)CCC2C3CCC4=CC(=O)CCC4=C3C(c3ccc(N(C)C)cc3)C[C@@]21C` (stereo partly drawn) [EC352, 17α-(1,1-difluoro-2-propyn-1-yl)-17β-hydroxy-11β-[4-p-(dimethylamino)phenyl]estra-4,9-dien-3-one], the concentration for half-maximal inhibition (IC50) was 45 nM in the data set with A549 (Lung cancer); more than 10000 nM in [1] (Homo sapiens, MCF7, LIF-overexpressing MCF-7); 50 nM in the data set on U87-MU (Glioma cells); more than 10000 nM in data set [6]; 40 nM in the data set on U251 (Glioma). The “Fold Change” value in data set [1] is given as 0.

On to `C#CC(F)(F)[C@]1(O)CCC2C3CCC4=CC(=O)CCC4=C3C(c3ccc(-n4ccnc4)cc3)C[C@@]21C` (some centres unmarked) [EC351], for which the melting point lay in the range of 175 to 178 °C.

`C#CC(F)(F)[C@]1(O)CCC2C3CCC4=CC(=O)CCC4=C3C(c3ccc(OC)cc3)C[C@@]21C` (stereo partly drawn) [EC356, 17α-(1,1-difluoro-2-propyn-1-yl)-17β-hydroxy-11β-[4-p-(methoxy)phenyl]estra-4,9-dien-3-one]: the “Fold Change” value in [1] amounted to 2.

Consider `Nc1ccn([C@@H]2O[C@H](CO)[C@@H](O)C2(F)F)c(=O)n1` [Gemcitabine, reference compound], for which the “relative reduction in GFP fluorescence” value in data set [7] stood at 98%.

The values are drawn from patent US20200087340A1, “LIF/LIFR ANTAGONIST IN ONCOLOGY AND NONMALIGNANT DISEASES” (Evestra, Inc., priority 2018, published 2020).
